Laboratory results taken from patent US9249129B2, “Morpholino substituted urea derivatives as mTOR inhibitors” (CELLZOME LIMITED, priority 2010, dated 2016).

Tests used:
Experiment in all cases: kinobeads assay with mass spectrometry detection of kinases (kinase selectivity profile)
Assay type in all cases: binding
kinases (kinome) [1] = target: T1, kinases (kinome) (Homo sapiens, UniProt Q13705); conditions: ACTR2B (TKL), IPI00437565
T1 construct: determined in kinobeads assays with mass spectrometry detection of kinases as described previously; endogenous in cells; host or cells: cell lysate
T1 sequence (Q13705 19-512): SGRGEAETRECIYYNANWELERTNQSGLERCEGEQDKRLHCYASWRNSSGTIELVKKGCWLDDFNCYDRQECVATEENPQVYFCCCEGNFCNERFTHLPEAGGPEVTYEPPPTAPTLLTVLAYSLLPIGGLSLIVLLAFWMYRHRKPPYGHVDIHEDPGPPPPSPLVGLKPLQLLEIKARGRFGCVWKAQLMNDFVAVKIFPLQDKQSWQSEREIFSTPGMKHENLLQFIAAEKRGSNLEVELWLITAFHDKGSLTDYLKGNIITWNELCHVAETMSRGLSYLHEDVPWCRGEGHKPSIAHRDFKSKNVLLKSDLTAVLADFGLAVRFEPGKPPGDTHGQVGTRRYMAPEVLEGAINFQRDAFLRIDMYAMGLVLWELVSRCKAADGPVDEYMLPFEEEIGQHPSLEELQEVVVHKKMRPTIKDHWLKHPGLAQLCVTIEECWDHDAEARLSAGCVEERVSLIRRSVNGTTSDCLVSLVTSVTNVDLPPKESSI
From the text: (§1) The protein kinase complement of the human genome (the kinome) was described previously (Manning et al., 2002. Science 298(5600):1912-1934). Sequence accession numbers are defined by the International Protein Index (IPI) (Kersey et al., 2004. Proteomics 4(7):1985-1988).

kinases (kinome) [2] = target: T2, kinases (kinome) (Homo sapiens, UniProt O00329); conditions: PIK3Cd (Lipid Kinase), IPI00384817
T2 construct: determined in kinobeads assays with mass spectrometry detection of kinases as described previously; endogenous in cells; host or cells: cell lysate
T2 sequence (O00329 1-1044): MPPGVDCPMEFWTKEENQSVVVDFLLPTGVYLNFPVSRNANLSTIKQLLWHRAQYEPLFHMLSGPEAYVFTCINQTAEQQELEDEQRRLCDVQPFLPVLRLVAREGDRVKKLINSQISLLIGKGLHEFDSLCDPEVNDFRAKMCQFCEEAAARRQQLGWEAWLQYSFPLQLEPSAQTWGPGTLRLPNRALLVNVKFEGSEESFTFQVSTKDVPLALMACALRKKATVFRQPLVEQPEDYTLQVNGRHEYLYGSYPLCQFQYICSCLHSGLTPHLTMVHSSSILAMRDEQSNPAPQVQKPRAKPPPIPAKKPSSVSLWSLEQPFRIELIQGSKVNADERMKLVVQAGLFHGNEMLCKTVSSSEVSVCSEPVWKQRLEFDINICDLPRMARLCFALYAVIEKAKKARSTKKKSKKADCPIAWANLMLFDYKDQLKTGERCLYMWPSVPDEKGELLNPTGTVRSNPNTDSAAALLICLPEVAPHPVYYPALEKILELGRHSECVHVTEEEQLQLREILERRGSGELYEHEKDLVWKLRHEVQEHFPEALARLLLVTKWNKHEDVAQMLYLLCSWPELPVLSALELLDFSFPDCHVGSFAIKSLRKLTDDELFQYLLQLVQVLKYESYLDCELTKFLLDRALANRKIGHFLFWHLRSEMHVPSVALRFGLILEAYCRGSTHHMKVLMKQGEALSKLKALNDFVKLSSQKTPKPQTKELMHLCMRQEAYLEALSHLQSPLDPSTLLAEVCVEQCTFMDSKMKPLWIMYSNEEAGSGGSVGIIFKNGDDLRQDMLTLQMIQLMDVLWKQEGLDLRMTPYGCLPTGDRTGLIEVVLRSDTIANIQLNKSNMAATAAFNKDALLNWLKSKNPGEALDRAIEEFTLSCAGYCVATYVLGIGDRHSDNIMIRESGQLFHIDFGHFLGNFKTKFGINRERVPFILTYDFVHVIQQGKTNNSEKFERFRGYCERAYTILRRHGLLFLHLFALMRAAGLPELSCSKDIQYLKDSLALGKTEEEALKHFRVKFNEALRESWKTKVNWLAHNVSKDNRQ
From the text: as §1

kinases (kinome) [3] = target: T3, kinases (kinome) (Homo sapiens, UniProt Q96L34); conditions: MARK4 (CAMK), IPI00064797
T3 construct: determined in kinobeads assays with mass spectrometry detection of kinases as described previously; endogenous in cells; host or cells: cell lysate
T3 sequence (Q96L34 1-752): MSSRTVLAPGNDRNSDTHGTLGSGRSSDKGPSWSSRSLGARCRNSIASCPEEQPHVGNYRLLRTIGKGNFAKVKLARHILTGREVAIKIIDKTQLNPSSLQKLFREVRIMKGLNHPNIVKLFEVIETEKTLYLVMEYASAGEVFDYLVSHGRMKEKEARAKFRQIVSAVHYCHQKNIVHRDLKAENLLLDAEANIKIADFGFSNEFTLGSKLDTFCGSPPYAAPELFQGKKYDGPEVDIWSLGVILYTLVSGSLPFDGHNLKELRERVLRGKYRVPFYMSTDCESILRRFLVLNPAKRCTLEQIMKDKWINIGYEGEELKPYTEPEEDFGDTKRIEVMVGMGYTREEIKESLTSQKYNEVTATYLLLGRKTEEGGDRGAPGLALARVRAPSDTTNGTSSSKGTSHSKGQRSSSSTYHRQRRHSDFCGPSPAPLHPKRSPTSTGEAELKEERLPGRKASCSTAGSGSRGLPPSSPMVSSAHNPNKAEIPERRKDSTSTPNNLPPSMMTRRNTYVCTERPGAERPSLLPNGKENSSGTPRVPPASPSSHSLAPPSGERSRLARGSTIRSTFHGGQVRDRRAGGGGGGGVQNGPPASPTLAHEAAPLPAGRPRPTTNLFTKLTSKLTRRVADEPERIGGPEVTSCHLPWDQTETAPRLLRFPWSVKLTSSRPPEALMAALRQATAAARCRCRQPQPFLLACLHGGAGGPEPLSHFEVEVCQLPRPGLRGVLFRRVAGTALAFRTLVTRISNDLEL
From the text: as §1

kinases (kinome) [4] = target: T4, kinases (kinome) (Homo sapiens, UniProt Q7KZI7); conditions: MARK2 (CAMK), IPI00555838
T4 construct: determined in kinobeads assays with mass spectrometry detection of kinases as described previously; endogenous in cells; host or cells: cell lysate
T4 sequence (Q7KZI7 whole entry): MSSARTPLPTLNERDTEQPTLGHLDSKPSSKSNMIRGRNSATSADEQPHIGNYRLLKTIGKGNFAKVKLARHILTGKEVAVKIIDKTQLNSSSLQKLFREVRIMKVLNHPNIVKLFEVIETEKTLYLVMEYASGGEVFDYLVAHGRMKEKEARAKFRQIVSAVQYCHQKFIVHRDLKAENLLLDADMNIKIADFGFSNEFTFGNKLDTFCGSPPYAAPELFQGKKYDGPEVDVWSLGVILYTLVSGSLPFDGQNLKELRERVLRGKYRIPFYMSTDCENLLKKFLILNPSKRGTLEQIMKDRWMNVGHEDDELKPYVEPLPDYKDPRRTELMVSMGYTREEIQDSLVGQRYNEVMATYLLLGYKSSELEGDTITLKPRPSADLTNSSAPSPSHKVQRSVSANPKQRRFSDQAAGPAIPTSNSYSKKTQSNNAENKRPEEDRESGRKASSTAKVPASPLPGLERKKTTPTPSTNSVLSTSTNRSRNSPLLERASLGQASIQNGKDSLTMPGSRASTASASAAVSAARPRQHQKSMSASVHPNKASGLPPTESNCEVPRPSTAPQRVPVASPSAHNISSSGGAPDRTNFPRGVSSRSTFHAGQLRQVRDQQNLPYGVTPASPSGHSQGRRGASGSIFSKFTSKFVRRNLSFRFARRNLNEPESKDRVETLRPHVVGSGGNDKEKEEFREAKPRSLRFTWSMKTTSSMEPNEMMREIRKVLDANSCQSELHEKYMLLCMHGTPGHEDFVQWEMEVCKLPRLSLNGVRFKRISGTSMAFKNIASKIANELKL
From the text: as §1

kinases (kinome) [5] = target: T5, kinases (kinome) (Homo sapiens, UniProt P49840); conditions: GSK3A (CMGC), IPI00292228
T5 construct: determined in kinobeads assays with mass spectrometry detection of kinases as described previously; endogenous in cells; host or cells: cell lysate
T5 sequence (P49840 whole entry): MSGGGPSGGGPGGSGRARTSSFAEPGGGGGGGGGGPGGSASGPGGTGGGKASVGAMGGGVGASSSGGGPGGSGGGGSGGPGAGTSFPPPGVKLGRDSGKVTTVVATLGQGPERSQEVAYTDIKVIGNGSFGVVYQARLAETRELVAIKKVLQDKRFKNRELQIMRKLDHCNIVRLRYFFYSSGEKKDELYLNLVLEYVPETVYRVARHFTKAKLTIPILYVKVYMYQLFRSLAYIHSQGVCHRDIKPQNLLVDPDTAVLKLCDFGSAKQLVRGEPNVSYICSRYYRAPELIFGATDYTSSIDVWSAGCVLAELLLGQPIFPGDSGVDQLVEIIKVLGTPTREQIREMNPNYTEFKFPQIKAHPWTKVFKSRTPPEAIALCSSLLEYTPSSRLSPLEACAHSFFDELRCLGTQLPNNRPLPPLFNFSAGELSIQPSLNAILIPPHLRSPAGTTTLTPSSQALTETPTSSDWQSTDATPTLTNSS
From the text: as §1

kinases (kinome) [6] = target: T6, kinases (kinome) (Homo sapiens, UniProt Q8TCG2); conditions: PIK4C2B (Lipid Kinase), IPI00291068
T6 construct: determined in kinobeads assays with mass spectrometry detection of kinases as described previously; endogenous in cells; host or cells: cell lysate
T6 sequence (Q8TCG2 whole entry): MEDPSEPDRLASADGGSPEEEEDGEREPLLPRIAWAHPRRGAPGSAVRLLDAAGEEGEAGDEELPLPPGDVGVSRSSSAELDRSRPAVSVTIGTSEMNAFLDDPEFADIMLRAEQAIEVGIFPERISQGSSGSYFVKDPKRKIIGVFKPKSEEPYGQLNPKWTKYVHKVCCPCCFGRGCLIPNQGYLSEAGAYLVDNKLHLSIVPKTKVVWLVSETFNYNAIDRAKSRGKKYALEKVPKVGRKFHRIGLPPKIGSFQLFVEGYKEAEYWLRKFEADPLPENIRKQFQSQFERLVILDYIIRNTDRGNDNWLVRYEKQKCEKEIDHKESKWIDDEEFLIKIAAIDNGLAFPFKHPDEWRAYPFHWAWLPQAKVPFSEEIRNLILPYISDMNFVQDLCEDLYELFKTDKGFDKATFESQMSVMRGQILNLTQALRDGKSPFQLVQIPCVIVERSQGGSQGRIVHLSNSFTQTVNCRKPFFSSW
From the text: as §1

kinases (kinome) [7] = target: T7, kinases (kinome) (Homo sapiens, UniProt Q99640); conditions: MYT1 (Other), IPI00909627
T7 construct: determined in kinobeads assays with mass spectrometry detection of kinases as described previously; endogenous in cells; host or cells: cell lysate
T7 sequence (Q99640 1-499): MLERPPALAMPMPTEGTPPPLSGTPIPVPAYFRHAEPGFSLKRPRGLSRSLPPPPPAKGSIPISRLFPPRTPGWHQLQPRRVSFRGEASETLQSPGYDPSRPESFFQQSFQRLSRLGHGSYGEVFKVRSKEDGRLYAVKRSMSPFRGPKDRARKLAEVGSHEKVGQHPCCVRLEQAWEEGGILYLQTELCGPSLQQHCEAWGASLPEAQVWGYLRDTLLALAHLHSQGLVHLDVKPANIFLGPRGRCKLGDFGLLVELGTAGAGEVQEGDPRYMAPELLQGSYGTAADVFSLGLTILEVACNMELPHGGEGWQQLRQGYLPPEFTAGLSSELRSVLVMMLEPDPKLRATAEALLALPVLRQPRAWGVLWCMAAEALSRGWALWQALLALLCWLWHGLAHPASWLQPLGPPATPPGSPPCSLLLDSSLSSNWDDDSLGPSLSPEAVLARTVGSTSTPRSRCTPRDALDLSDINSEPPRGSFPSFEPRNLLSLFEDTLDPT
From the text: as §1

Measured: IC50

C[C@H]1COCCN1c1nc(-c2ccc(NC(=O)NC3CC3)cc2)cc(-c2ccccc2S(C)(=O)=O)n1 [Example 4, (S)-1-cyclopropyl-3-(4-(2-(3-methylmorpholino)-6-(2-(methylsulfonyl)phenyl)pyrimidin-4-yl)phenyl)urea]
> 10 µM: all assays above

C[C@H]1COCCN1c1cc(-c2ccccc2S(C)(=O)=O)nc(-c2ccc(NC(=O)NC3CC3)cc2)n1 [Example 6, (S)-1-cyclopropyl-3-(4-(4-(3-methylmorpholino)-6-(2-(methylsulfonyl)phenyl)pyrimidin-2-yl)phenyl)urea]
> 10 µM: all assays above

CCNC(=O)Nc1ccc(-c2cc(-c3ccccc3C#N)nc(N3CCOC[C@@H]3C)n2)cc1 [Example 8, (S)-1-(4-(6-(2-cyanophenyl)-2-(3-methylmorpholino)pyrimidin-4-yl)phenyl)-3-ethylurea]
> 10 µM: all assays above

C[C@H]1COCCN1c1nc(-c2ccc(NC(=O)NC3CC3)cc2)cc(-c2cc(F)ccc2S(C)(=O)=O)n1 [Example 40, (S)-1-cyclopropyl-3-(4-(6-(5-fluoro-2-(methylsulfonyl)phenyl)-2-(3-methylmorpholino)pyrimidin-4-yl)phenyl)urea]
> 10 µM: all assays above

C[C@H]1COCCN1c1cc(-c2ccccn2)nc(-c2ccc(NC(=O)NCCO)cc2)n1 [Example 43, (S)-1-(2-hydroxyethyl)-3-(4-(4-(3-methylmorpholino)-6-(pyridin-2-yl)pyrimidin-2-yl)phenyl)urea]
> 10 µM: all assays above

C[C@H]1COCCN1c1nc(-c2ccc(NC(=O)NC3CC3)cc2)cc(-c2cccnc2S(C)(=O)=O)n1 [Example 46, (S)-1-cyclopropyl-3-(4-(2-(3-methylmorpholino)-6-(2-(methylsulfonyl)pyridin-3-yl)pyrimidin-4-yl)phenyl)urea]
> 10 µM: all assays above

C[C@H]1COCCN1c1nc(-c2ccc(NC(=O)N[C@H]3CCC[C@@H]3O)cc2)cc(-c2cc(F)ccc2S(C)(=O)=O)n1 [Example 76, 1-(4-(6-(5-fluoro-2-(methylsulfonyl)phenyl)-2-((S)-3-methylmorpholino)pyrimidin-4-yl)phenyl)-3-((1S,2S)-2-hydroxycyclopentyl)urea]
> 10 µM: all assays above
